Test results as given in patent US6103709A (priority 1998, dated 2000).

What was measured:
[1] = molecular target: T1, human vitamin D-binding protein (hDBP) (Homo sapiens, UniProt P02774); assay: Relative Competitive Index assay, vitamin D-binding protein; settings: for Vit D Binding Protein (RCI): RCI of 1α,25(OH)2 D3 set to 100, 4° C., pH 7.4; for DBP binding (in words): compared with 1α,25(OH)2 D3; for Binding to DBP relative to 1α,25(OH)2 D3 (RCI, FIG. 7): 1α,25(OH)2 D3 = 100%, mean of three determinations
T1 sequence (P02774 17-474): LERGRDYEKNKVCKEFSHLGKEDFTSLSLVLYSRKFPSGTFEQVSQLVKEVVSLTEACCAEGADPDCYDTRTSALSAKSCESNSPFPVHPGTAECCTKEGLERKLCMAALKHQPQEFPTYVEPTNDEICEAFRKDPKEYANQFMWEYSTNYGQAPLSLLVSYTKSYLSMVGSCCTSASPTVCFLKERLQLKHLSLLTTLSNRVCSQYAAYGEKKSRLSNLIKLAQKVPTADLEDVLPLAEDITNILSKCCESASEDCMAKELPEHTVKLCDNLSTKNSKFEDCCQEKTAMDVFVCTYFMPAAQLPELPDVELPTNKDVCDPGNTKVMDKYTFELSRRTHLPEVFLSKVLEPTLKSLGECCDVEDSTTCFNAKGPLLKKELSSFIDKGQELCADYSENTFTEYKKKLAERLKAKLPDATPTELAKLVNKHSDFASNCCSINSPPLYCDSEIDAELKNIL
Excerpt: The compared analogs are 14α,15α-methano-1α,25(OH)2 D3 (LO), 22(m(dimethylhydroxymethyl)phenyl)-23,24,25,26,27-pentanor-1α- OH-D3 (EV) and (22R)-1,25(OH)2 -22,23,diene-D3 (HR), all conformationally flexible genomic agonists. By definition the RCI for 1α,25(OH)2 D3 is set to 100%. The data seen in FIG. 7 represent the mean of three determinations.
Vitamin D-Binding Protein Assay Relative Competitive Index
This example describes a Relative Competitive Index Assay used for determination of analogs binding affinity to vitamin D-binding protein.
Phase separation was then obtained by the addition of 0.5 ml of cold dextran-coated charcoal.
The data was plotted as [competitor]/[[^3 H]25(OH)D3 ] vs. 1/[fraction bound]. The RCI was calculated as [slope of competitor]/[slopefor 25(OH)D3 ]×100. Results are seen in FIG. 7. Although each analog was assayed in competition with [^3 H]25(OH)D3, the data are expressed as relative to the binding of 1α,25(OH)2 D3, with its RCI set to 100.

[2] = test system: vitamin D-deficient chick; assay: Bone Ca2+ mobilizing activity (BCM) in vitamin D-deficient chick; assay type: in vivo; settings: i.m.; for Classic Vit D Responses BCM: relative to 100 pmol 1α,25(OH)2 D3 = 100%, 12 h before assay; for BCM (in words): vitamin D-deficient chick
Procedure: The bone calcium mobilizing (BCM) assay is also conducted in the vitamin D-deficient chick. The BCM assay determines the relative ability of the tested analog to mobilize bone calcium. The natural hormone 1α,25(OH)2 D3 is very potent in the BCM assay. For example, when 1α,25(OH)2 D3 in inappropriate amounts are used as a drug in human patients, the patient may become hypercalcemic and eventually hypercalciuria with nephrolithiasis and renal failure may develop. The BCM assay was used to determine the relative activity of the analogs of the invention to stimulate bone Ca^2+ mobilization.
Results of the testing of the analogs of the invention in vivo by the ICA and IBM assays are shown in FIG. 9 which illustrates the capability of analogs LO, EV and HR to stimulate intestinal Ca^2+ absorption (ICA) and bone Ca^2+ mobilizing activity (BCM). In this study, the analogs of 1α,25(OH) were given i.m. to vitamin D-deficient chicks 12 hours before the assay began. The activity produced by 100 pmol of 1α,25(OH)2 D3 was set to be 100% for both ICA and BCM. The dose of the analogs required to achieve a biological response for either ICA or BCM equivalent to the 100 pmol dose of 1α,25(OH)2 D3 was calculated and converted to a percentage. Results are expressed as mean +SE of groups of seven chicks. Each assay included a negative control (-D), that is no vitamin D was present, and a positive control, where vitamin D3 (+D3) was present in 3.25 nmol. […] 1α,25(OH)2 D3 and analogs LO [14α,15α-methano-1α,25(OH)2 D3 ], EV [22-(m(dimethylhydroxymethyl)phenyl)-23,24,25,26,27-pentanor-1α-OH-D3 ] and HR [(22R)-1,25(OH)2 -22,23-diene-D3 ] were administered in 0.0065, 0.065, 0.65 and 6.5 nmol as shown.
In Vivo Assays of Intestinal Calcium Absorption and Bone Calcium Mobilization
This example describes assays used for determination of analogs biological activity in intestinal calcium absorption (ICA) and bone calcium mobilization (BCM) assays.
ICA and BCM were measured in vivo in the vitamin D-deficient chick model system according to Biochem. Pharmacol., 18: 2347 (1969).
Twelve hours before assay, the chickens, which had been placed on a zero-calcium diet 48 h before assay, were injected intramuscularly with the vitamin metabolite 1α,25(OH)2 D3 or analog (1-10,000 pmoles) dissolved in 0.1 mL of ethanol/1,2-propanediol (1:1, v/v). At the time of assay, 4.0 mg of ^40 Ca^2+ +5 μCi of ^45 Ca^2+ (New England Nuclear) were placed in the duodenum of the birds lightly anesthetized with ether. After 30 min, the birds were decapitated and the blood was collected.
BCM activity was estimated from the increase of total serum calcium concentration, as determined by atomic absorption spectrophotometry.

[3] = test system: VDRnuc; assay: Genomic response (summary classification); settings: Yes/No, Tables 1 and 6

| Compound | Vit D Binding Protein (RCI) [1] | Classic Vit D Responses BCM [2] [%] | BCM (in words) [2] | Genomic Response [3] | DBP binding (in words) [1] | Binding to DBP relative to 1α,25(OH)2 D3 (RCI, FIG. 7) [1] [%] | RCI for DBP, times greater than 1α,25(OH)2 D3 ([1]; relative to reference 1α,25(OH)2 D3) [times] |
| --- | --- | --- | --- | --- | --- | --- | --- |
| C=C1/C(=C\C=C2/CCC[C@]3(C)[C@@H]([C@H](C)Cc4cccc(O)c4)CC[C@@H]23)C[C@@H](O)C[C@@H]1O [DE] | 980 | 1.0 | show stimulating activity in both ICA and BCM assays | Yes | – | – | – |
| C=C1/C(=C\C=C2/CCC[C@]3(C)[C@@H]([C@H](C)CCCC(C)(C)O)CC[C@@H]23)C[C@@H](O)C[C@H]1O [HL] | – | < 0.3 | – | No | – | – | – |
| C[C@H](CCCC(C)(C)O)[C@H]1CC[C@H]2C3=CC=C4C[C@@H](O)C[C@H](O)[C@@]4(C)[C@H]3CC[C@]12C [JO] | 2.0 | 0.03 | – | No | lower than 1α,25(OH)2 D3 | – | – |
| CC1=C(C=C=C2CCC[C@]3(C)[C@@H]([C@H](C)CCCC(C)(C)O)CC[C@@H]23)C[C@@H](O)C[C@@H]1O [JW] | 700 | 0.3 | – | Yes | – | – | – |
| C=C1CC[C@H](O)C/C1=C/C=C1\CCC[C@]2(C)[C@@H]([C@H](C)Cc3cccc(O)c3)CC[C@@H]12 [JY] | 132,000 | < 0.05 | – | Yes | – | – | – |
| C[C@H](CCCC(C)(C)O)[C@H]1CC[C@H]2C3=CC=C4C[C@@H](O)C[C@H](O)[C@]4(C)[C@@H]3CC[C@]12C [JP] | -5.0 | 0.8 | – | No | lower than 1α,25(OH)2 D3 | – | – |
| CC1=C(/C=C\C2=CCC[C@@]3(C)[C@@H]2CC[C@@H]3[C@H](C)CCCC(C)(C)O)C[C@@H](O)C[C@@H]1O [GF] | 2 | < 0.1 | – | Yes | lower than 1α,25(OH)2 D3 | – | – |
| C[C@H](CCCC(C)(C)O)[C@H]1CC[C@H]2C3=CC=C4C[C@@H](O)C[C@H](O)[C@]4(C)[C@H]3CC[C@]12C [JM] | -0.3 | 0.8 | – | No | lower than 1α,25(OH)2 D3 | – | – |
| C=C1/C(=C\C=C2/CCC[C@]3(C)[C@@H]([C@H](C)C=C=CC(C)(C)O)CC[C@@H]23)C[C@@H](O)C[C@@H]1O [HR] | 48 | 0.6 | – | Yes | lower than 1α,25(OH)2 D3 | 48 | – |
| C=C1/C(=C\C=C2/CCC[C@]3(C)[C@@H]([C@H](C)C=C=CC(C)(C)O)CC[C@@H]23)C[C@@H](O)C[C@@H]1O [HQ] | 11 | 1.0 | – | Yes | lower than 1α,25(OH)2 D3 | – | – |
| C=C1/C(=C\C=C2/CCC[C@]3(C)[C@@H]([C@H](C)CCCC(C)(C)O)C[C@@H]4C[C@@]243)C[C@@H](O)C[C@@H]1O [LO] | 60 | – | highly effective stimulator of bone Ca^2+ mobilizing activity (BCM) | Yes | lower than 1α,25(OH)2 D3 | 60 | – |
| C=C1/C(=C\C=C2/CCC[C@]3(C)[C@@H]([C@H](C)Cc4cccc(C(C)(C)O)c4)CC[C@@H]23)C[C@@H](O)C[C@@H]1O [EV] | 25 | 8 | show stimulating activity in both ICA and BCM assays | Yes | lower than 1α,25(OH)2 D3 | 25 | – |
| CC1=C(C=C=C2CCC[C@]3(C)[C@@H]([C@H](C)CCCC(C)(C)O)CC[C@@H]23)C[C@@H](O)C[C@@H]1O [JV] | 37 | 0.02 | – | Yes | lower than 1α,25(OH)2 D3 | – | – |
| C=C1CC[C@H](O)C/C1=C/C=C1\CCC[C@]2(C)[C@@H]([C@H](C)Cc3ccc(O)cc3)CC[C@@H]12 [JX] | 211,000 | < 0.05 | – | Yes | binds very tightly to DBP | – | 2110 |
| C[C@H](CCCC(C)(C)O)[C@H]1CC[C@H]2C3=CC=C4C[C@@H](O)C[C@H](O)[C@@]4(C)[C@@H]3CC[C@]12C [JN] | -0.7 | 1.0 | – | No | lower than 1α,25(OH)2 D3 | – | – |
| C=C1/C(=C\C=C2/CCC[C@]3(C)[C@@H]([C@H](C)Cc4ccc(O)cc4)CC[C@@H]23)C[C@@H](O)C[C@@H]1O [DF] | 1980 | 0.08 | – | Yes | – | – | – |
